Test results reported in ChEMBL document CHEMBL5042504 (J Med Chem, 2022).
Each block holds one compound with its values, some of them ahead of it. Activity calls are given as the source filed them. The rule behind the calls is not given here.

Legend:
Histone deacetylase 1 = Histone deacetylase 1 (Homo sapiens, UniProt Q13547); test: Inhibition of human recombinant HDAC1 using Boc-Lys(acetyl)-AMC substrate incubated for 2 hrs by fluorescence based assay
Histone deacetylase 3 = Histone deacetylase 3 (Homo sapiens, UniProt O15379); test: Inhibition of human recombinant HDAC3 using Boc-Lys(acetyl)-AMC substrate incubated for 2 hrs by fluorescence based assay
Sequence of Histone deacetylase 3 (O15379 whole entry): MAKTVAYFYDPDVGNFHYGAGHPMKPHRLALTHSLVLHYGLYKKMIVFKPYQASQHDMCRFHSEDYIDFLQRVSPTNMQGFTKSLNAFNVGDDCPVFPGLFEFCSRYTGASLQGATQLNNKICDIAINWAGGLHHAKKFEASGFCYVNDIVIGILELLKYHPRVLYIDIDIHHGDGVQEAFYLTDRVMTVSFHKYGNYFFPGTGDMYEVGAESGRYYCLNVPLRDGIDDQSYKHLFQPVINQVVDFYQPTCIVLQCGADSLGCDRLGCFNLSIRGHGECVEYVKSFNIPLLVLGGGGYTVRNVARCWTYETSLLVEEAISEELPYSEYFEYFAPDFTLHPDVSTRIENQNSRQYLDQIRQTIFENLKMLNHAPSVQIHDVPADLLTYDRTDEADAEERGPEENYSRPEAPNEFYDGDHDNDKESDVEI

Histone deacetylase 2 = Histone deacetylase 2 (Homo sapiens, UniProt Q92769); test: Inhibition of human recombinant HDAC2 using Boc-Lys(acetyl)-AMC substrate incubated for 2 hrs by fluorescence based assay
Sequence of Histone deacetylase 2 (Q92769 whole entry): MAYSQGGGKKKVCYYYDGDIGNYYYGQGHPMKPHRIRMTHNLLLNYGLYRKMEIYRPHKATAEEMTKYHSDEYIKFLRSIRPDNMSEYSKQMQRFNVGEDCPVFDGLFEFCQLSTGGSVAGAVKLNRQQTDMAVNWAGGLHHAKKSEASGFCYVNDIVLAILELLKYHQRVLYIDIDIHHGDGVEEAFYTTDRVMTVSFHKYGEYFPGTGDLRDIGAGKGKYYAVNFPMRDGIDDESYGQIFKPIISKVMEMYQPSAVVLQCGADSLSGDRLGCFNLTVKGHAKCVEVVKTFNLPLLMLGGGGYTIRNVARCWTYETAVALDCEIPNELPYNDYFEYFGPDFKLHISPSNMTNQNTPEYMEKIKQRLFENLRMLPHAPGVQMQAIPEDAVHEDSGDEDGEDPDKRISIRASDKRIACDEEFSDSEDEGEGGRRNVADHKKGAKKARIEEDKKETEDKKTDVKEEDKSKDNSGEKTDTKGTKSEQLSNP

[1] = biological target: T1, Protein deacetylase HDAC6 (Homo sapiens, UniProt Q9UBN7); test: Inhibition of human recombinant HDAC6 using Boc-Lys(acetyl)-AMC substrate incubated for 2 hrs by fluorescence based assay
T1 sequence (Q9UBN7 whole entry): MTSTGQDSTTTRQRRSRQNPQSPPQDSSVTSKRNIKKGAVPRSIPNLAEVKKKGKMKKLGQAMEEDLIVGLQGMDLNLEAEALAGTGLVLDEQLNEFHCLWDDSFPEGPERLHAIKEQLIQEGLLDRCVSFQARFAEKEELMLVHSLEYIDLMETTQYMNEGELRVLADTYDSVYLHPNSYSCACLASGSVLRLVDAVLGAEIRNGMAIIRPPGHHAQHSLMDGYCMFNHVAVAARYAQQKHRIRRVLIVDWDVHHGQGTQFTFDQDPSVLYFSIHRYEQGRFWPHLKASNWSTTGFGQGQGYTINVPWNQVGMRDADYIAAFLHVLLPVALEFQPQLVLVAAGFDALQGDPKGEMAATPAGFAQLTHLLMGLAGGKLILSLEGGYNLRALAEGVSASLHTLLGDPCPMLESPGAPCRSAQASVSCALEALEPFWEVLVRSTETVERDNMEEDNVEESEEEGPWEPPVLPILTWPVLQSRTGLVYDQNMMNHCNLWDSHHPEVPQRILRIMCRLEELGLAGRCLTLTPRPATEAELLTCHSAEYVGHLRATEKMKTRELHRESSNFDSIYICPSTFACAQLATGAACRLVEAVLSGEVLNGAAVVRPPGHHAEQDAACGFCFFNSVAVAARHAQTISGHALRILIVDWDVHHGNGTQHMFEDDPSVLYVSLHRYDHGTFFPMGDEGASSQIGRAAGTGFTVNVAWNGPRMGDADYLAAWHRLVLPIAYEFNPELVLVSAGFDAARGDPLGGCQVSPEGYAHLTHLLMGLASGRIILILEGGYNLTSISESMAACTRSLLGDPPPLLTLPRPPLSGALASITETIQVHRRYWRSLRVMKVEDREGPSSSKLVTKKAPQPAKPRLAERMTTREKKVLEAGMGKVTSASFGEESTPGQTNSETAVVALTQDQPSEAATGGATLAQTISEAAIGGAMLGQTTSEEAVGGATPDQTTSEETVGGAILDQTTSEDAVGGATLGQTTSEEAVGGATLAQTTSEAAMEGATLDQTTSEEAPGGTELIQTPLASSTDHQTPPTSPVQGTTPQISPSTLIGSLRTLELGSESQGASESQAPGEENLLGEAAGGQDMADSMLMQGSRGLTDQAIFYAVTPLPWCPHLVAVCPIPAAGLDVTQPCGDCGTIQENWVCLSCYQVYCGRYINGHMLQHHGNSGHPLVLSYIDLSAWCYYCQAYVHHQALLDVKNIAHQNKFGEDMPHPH

MV4-11 [2] = test: cells; details: Homo sapiens, MV4-11, 48 h
Description: Antiproliferative activity against human MV4-11 AML cells assessed as cell viability measured after 48 hrs by multiplate reader method

[3] = Drug distribution in tumor of BALB/c mouse xenografted with human MV4-11 cells assessed as measured after 0.5 hrs; assay type: ADME; details: read-out: Ct
[4] = Drug uptake in BALB/c mouse xenografted with human AML MV4-11 cells assessed as tumor tissue at 4mg/kg, po measured after 0.5 to 6 hrs by LC-MS/MS; assay type: ADME, organism-based; details: in vivo, time 0.5-6 hrs
[5] = Drug distribution in BALB/c mouse kidney measured at 4 mg/kg, po or ip after 0.5 hrs after 0.5 hrs; assay type: ADME, organism-based; details: in vivo
[6] = Drug distribution in BALB/c mouse lung measured at 4 mg/kg, po or ip after 0.5 hrs after 0.5 hrs; assay type: ADME, organism-based; details: in vivo
[7] = Drug distribution in BALB/c mouse heart measured at 4 mg/kg, po or ip after 0.5 hrs after 0.5 hrs; assay type: ADME, organism-based; details: in vivo
[8] = Drug distribution in BALB/c mouse heart measured at 4 mg/kg, po or ip after 2 to 8 hrs after 0.5 hrs; assay type: ADME, organism-based; details: in vivo, time 2-8 hrs
[9] = Drug distribution in BALB/c mouse liver measured at 4 mg/kg, po or ip after 0.5 hrs after 0.5 hrs; assay type: ADME, organism-based; details: in vivo
[10] = Drug distribution in BALB/c mouse spleen measured at 4 mg/kg, po or ip after 2 to 8 hrs after 0.5 hrs; assay type: ADME, organism-based; details: in vivo, time 2-8 hrs
[11] = Drug uptake in BALB/c mouse xenografted with human AML MV4-11 cells assessed as tumor tissue at 4 mg/kg ip measured after 0.5 to 6 hrs by LC-MS/MS; assay type: ADME, organism-based; details: in vivo, time 0.5-6 hrs
[12] = Drug distribution in BALB/c mouse lung measured at 4 mg/kg, po or ip after 2 to 8 hrs after 0.5 hrs; assay type: ADME, organism-based; details: in vivo, time 2-8 hrs
[13] = Drug distribution in BALB/c mouse spleen measured at 4 mg/kg, po or ip after 0.5 hrs; assay type: ADME, organism-based; details: in vivo
MV4-11 [14] = test: Antitumor activity against human MV4-11 cells xenografted in BALB/c mouse assessed as tumor growth inhibition at 2 to 4 mg/kg, po administered for 24 days; assay type: functional; details: dose 2-4 mg/kg, time 24.0 day
[15] = Plasma concentration in BALB/c mouse xenografted with human AML MV4-11 cells at 4 mg/kg, ip; assay type: ADME, organism-based; details: in vivo
[16] = Drug distribution in BALB/c mouse kidney measured at 4 mg/kg, po or ip after 2 to 8 hrs after 0.5 hrs; assay type: ADME, organism-based; details: in vivo, time 2-8 hrs
[17] = Plasma concentration in BALB/c mouse xenografted with human AML MV4-11 cells at 4 mg/kg, po; assay type: ADME, organism-based; details: in vivo
MV4-11 [18] = test: Antitumor activity against human MV4-11 cells xenografted in BALB/c mouse assessed as tumor growth inhibition at 4 mg/kg, po administered for 24 days; assay type: functional, organism-based; details: time 24.0 day
MV4-11 [19] = test: Antitumor activity against human MV4-11 cells xenografted in BALB/c mouse assessed as tumor growth inhibition at 4 mg/kg, ip administered for 24 days; assay type: functional, organism-based; details: time 24.0 day
[20] = Drug distribution in BALB/c mouse brain measured at 4 mg/kg, po or ip after 2 to 8 hrs after 0.5 hrs; assay type: ADME, organism-based; details: in vivo, time 2-8 hrs
[21] = Drug distribution in BALB/c mouse gut measured at 4 mg/kg, po or ip after 0.5 hrs after 0.5 hrs; assay type: ADME, organism-based; details: in vivo
[22] = Drug distribution in BALB/c mouse brain measured at 4 mg/kg, po or ip after 0.5 hrs after 0.5 hrs; assay type: ADME, organism-based; details: in vivo
[23] = Drug distribution in tumor of BALB/c mouse xenografted with human MV4-11 cells assessed as measured after 8 hrs; assay type: ADME; details: read-out: Ct
[24] = Drug distribution in BALB/c mouse liver measured at 4 mg/kg, po or ip after 2 to 8 hrs after 0.5 hrs; assay type: ADME, organism-based; details: in vivo, time 2-8 hrs
[25] = Drug distribution in tumor of BALB/c mouse xenografted with human MV4-11 cells assessed as measured after 2 hrs; assay type: ADME; details: read-out: Ct
[26] = Drug distribution in BALB/c mouse gut measured at 4 mg/kg, po or ip after 2 to 8 hrs after 0.5 hrs; assay type: ADME, organism-based; details: in vivo, time 2-8 hrs
[27] = Cmax in CD-1 mouse at 20 mg/kg, po measured upto 24 hrs; assay type: ADME, organism-based; parameters: route oral, dose 20 mg/kg, time <=24; details: mouse, in vivo, 24 h
[28] = AUC (0 to infinity) in CD-1 mouse at 20 mg/kg, po measured upto 24 hrs; assay type: ADME, organism-based; parameters: route oral, dose 20 mg/kg, time <=24; details: in vivo
[29] = Oral bioavailability in CD-1 mouse at 20 mg/kg measured upto 24 hrs; assay type: ADME, organism-based; details: in vivo

Sequence of Histone deacetylase 1 (Q13547 whole entry): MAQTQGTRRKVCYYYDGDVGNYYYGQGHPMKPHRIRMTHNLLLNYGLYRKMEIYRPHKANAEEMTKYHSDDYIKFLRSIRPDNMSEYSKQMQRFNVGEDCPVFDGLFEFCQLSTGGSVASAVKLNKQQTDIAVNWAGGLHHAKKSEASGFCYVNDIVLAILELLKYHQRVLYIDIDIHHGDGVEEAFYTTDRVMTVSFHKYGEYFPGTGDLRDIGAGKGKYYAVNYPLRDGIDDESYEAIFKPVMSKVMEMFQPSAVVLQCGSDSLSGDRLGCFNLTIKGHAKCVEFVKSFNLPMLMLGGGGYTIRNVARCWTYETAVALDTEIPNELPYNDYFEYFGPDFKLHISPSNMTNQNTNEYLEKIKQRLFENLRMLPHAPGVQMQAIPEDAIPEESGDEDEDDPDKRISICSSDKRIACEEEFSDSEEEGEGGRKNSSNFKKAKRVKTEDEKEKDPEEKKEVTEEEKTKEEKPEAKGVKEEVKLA

- IC50 (Histone deacetylase 1): 0.0162 µM
- IC50 (Histone deacetylase 3): 0.00203 µM
- IC50 (Histone deacetylase 2): 0.0414 µM
- IC50 [1]: > 10 µM
- IC50 (MV4-11 [2]): 0.0597 µM
Compound: CCCNNC(=O)c1ccc(CNC(=O)c2ccc3cnccc3n2)cc1

- IC50 (Histone deacetylase 1): 0.00891 µM
- IC50 (Histone deacetylase 3): 0.00062 µM
- IC50 (Histone deacetylase 2): 0.0281 µM
- IC50 [1]: > 10 µM
- IC50 (MV4-11 [2]): 0.248 µM
Compound: CCCNNC(=O)c1ccc(CNC(=O)c2cc3cc(Cl)ccc3o2)cc1

- IC50 (Histone deacetylase 1): 0.0138 µM
- IC50 (Histone deacetylase 3): 0.00066 µM
- IC50 (Histone deacetylase 2): 0.0461 µM
- IC50 [1]: > 10 µM
- IC50 (MV4-11 [2]): 0.0377 µM
Compound: CCCNNC(=O)c1ccc(CNC(=O)c2cc3cc(Cl)ccc3[nH]2)cc1

- IC50 (Histone deacetylase 1): 0.00352 µM
- IC50 (Histone deacetylase 3): 0.00038 µM
- IC50 (Histone deacetylase 2): 0.0151 µM
- IC50 [1]: > 10 µM
Compound: CCCNNC(=O)c1ccc(CNC(=O)c2cc3ccccc3o2)cc1

- IC50 (Histone deacetylase 1): 0.00466 µM
- IC50 (Histone deacetylase 3): 0.00058 µM
- IC50 (Histone deacetylase 2): 0.0164 µM
- IC50 [1]: > 10 µM
- IC50 (MV4-11 [2]): 0.0375 µM
Compound: CCCNNC(=O)c1ccc(CNC(=O)c2cc3cc(OC)ccc3[nH]2)cc1

- IC50 (Histone deacetylase 1): 0.0107 µM
- IC50 (Histone deacetylase 3): 0.0009 µM
- IC50 (Histone deacetylase 2): 0.0573 µM
- IC50 [1]: > 10 µM
- IC50 (MV4-11 [2]): 0.0578 µM
Compound: CCCNNC(=O)c1ccc(CNC(=O)c2ccc3ccccc3n2)cc1

- IC50 (Histone deacetylase 1): 0.0171 µM
- IC50 (Histone deacetylase 3): 0.00103 µM
- IC50 (Histone deacetylase 2): 0.0396 µM
- IC50 [1]: > 10 µM
- IC50 (MV4-11 [2]): 0.0641 µM
Compound: CCCNNC(=O)c1ccc(CNC(=O)c2ccc3cnccc3c2)cc1

- IC50 (Histone deacetylase 1): 0.0088 µM
- IC50 (Histone deacetylase 3): 0.00148 µM
- IC50 (Histone deacetylase 2): 0.0309 µM
- IC50 [1]: > 10 µM
- IC50 (MV4-11 [2]): 0.0459 µM
Compound: CCCNNC(=O)c1ccc(CNC(=O)c2cc3ccccc3cn2)cc1

- IC50 (Histone deacetylase 1): 0.0117 µM
- IC50 (Histone deacetylase 3): 0.00085 µM
- IC50 (Histone deacetylase 2): 0.0358 µM
- IC50 [1]: > 10 µM
- IC50 (MV4-11 [2]): 0.0538 µM
Compound: C=CCOc1ccc2oc(C(=O)NCc3ccc(C(=O)NNCCC)cc3)cc2c1

- concentration at 0.5 h [3]: 82.4 ng/g
- Drug uptake [4]: Active
- Drug uptake [5]: Active
- Drug uptake [6]: Active
- Drug uptake [7]: Active
- Drug uptake [8]: Active
- Drug uptake [9]: Active
- Drug uptake [10]: Active
- Drug uptake [11]: Active
- Drug uptake [12]: Active
- Drug uptake [13]: Active
- Drug uptake [15]: Active
- Drug uptake [16]: Active
- Drug uptake [17]: Active
- Drug uptake [20]: Active
- Drug uptake [21]: Active
- Drug uptake [22]: Active
- concentration at 8 h [23]: 108 ng/g
- Drug uptake [24]: Active
- concentration at 2 h [25]: 151 ng/g
- Drug uptake [26]: Active
Compound: Cc1[nH]c2ccccc2c1CCNCc1ccc(/C=C/C(=O)NO)cc1 [PANOBINOSTAT]
- TGI (MV4-11 [14]): inactive
- Activity (MV4-11 [18]): Active
- Activity (MV4-11 [19]): Active

- Cmax [27]: 0.0451 µg/mL
- IC50 [1]: > 10 µM
- AUC [28]: 0.265 µg·h/mL
- F [29]: 19.8%
Compound: CCCNNC(=O)/C=C/c1ccc(CNCCc2c(C)[nH]c3ccccc23)cc1

- IC50 (Histone deacetylase 1): 0.0113 µM
- IC50 (Histone deacetylase 3): 0.00144 µM
- IC50 (Histone deacetylase 2): 0.0334 µM
- IC50 [1]: > 10 µM
- IC50 (MV4-11 [2]): 0.0532 µM
Compound: CCCNNC(=O)c1ccc(CNC(=O)c2nc3ccccc3[nH]2)cc1
